Reference: patent publication US5196449A, “Methods and pharmaceutical compositions for the treatment of ophthalmic diseases” (IdB Holding SpA, priority 1989, dated 1993)

Assays:
[1] = Acute toxicity in mice, stomach probe; type: in vivo; settings: for Toxic symptoms or death (in words): doses up to 6 g/kg; for LD50: mouse, in vivo, po
Description: (§1) This was tested on mice and rats after administration by stomach probe. […] The LD 50 must therefore be above 6 g/kg.

[2] = tested on: vessels of the ciliary body (haemato-ophthalmic barrier); assay: Permeability of the haemato-ophthalmic barrier induced by NaOH in the rabbit (Evans Blue); type: in vivo, New Zealand rabbit; settings: seven days; for Percentage variation of Evans Blue: vs controls; for Reduction in permeability, significance (in words): 100 mg/kg os; for Permeability of the vessels of the ciliary body caused by the irritating agent (in words): 50 or 100 mg/kg os
Description: (§2) The effect on the permeability of the haemato-ophthalmic barrier was measured by inducing an increase in the permeability of the vessels of the ciliary body, either by paracentesis or by instillation of sodium hydroxide into the conjunctival sac. The reduction in permeability induced by oral administration of the products under examination was then measured.
The experiment was carried out on 50 New Zealand rabbits, average body weight 2.2 kg. The substance was administered once a day for seven days in doses of 50 or 100 mg/kg. A control group was treated with tap water.
Thirty minutes after the last administration, 1 ml of a 0.5% solution of Evans Blue was administered in the marginal vein of the ear. After 30 minutes, inflammation of the eye tissue was produced by instilling two drops of 0.25N sodium hydroxide in the conjunctival sac. Two hours later the animal was anesthesized and a sample of aqueous humour was taken in order to measure the proportion of dye.

[3] = tested on: vessels of the ciliary body (haemato-ophthalmic barrier); assay: Permeability of the haemato-ophthalmic barrier induced by paracentesis in the rabbit (Evans Blue dye method); type: in vivo, New Zealand albino rabbit; settings: for Amount of dye coming out of the vessels of the ciliary body (in words): single dose of 100 or 200 mg/kg, two or four hours after administration
Description: as §2
The experiment was carried out on 80 New Zealand albino rabbits, average body weight 2.8 kg, divided into eight groups each of ten animals.
The vasal permeability was measured by the dye method: 1 ml of Evans Blue in a concentration of 0.5% was injected into the marginal vein of the auricle.
After 10 minutes the left eye was subjected to paracentesis and after 12 minutes a sample of aqueous humour was taken. The quantity of Evans Blue in the sampled aqueous humour was used to assess the permeability of the haemato-ophthalmic barrier. Immediately afterwards, compounds I and II were administered in doses of 100 or 200 mg/kg by stomach probe.
Two or four hours after administration, paracentesis was carried out on the right eye and after 12 minutes a sample of aqueous humour was taken.
The quantity of Evans Blue in the aqueous humour was evaluated by spectrophotometer reading at 623 nm. […]

[4] = Acute toxicity in rats, stomach probe; type: in vivo; settings: for Toxic symptoms or death (in words): doses up to 6 g/kg; for LD50: rat, in vivo, po
Description: as §1

[5] = tested on: conjunctiva, cornea, iris, crystalline lens, vitreous humour and retina; assay: Ocular tolerability after oral administration; type: in vivo, New Zealand rabbit; settings: single (200 mg/kg) or repeated (100 mg/kg, 7 days) oral administration
Description: The ocular tolerability of compounds I and II was measured in New Zealand rabbits on the anterior segment (conjunctiva, cornea, iris and crystalline lens) and on the posterior segment (vitreous humour and retina) after oral administration, local application and intra-ocular injection.
Both products were administered by stomach probe, either in a single dose of 200 mg/kg or in repeated doses of 100 mg/kg for 7 days. Surveys were made before and 1, 2 and 4 hours after acute administration, on the third and seventh days after repeated administration and 5 days after suspension of treatment.

[6] = tested on: vessels of the ciliary body (haemato-ophthalmic barrier); assay: Permeability of the haemato-ophthalmic barrier induced by histamine (corneal lens method, Evans Blue); type: in vivo, New Zealand rabbit; settings: for Permeability of the vessels of the ciliary body caused by histamine (in words) / Effects, significance (in words): 100 mg/kg by gavage; for Effects, significance (in words): after 2 and 4 hours; for Evans Blue in aqueous humour, m ± sd / Percentage variation of Evans Blue relative to time 0: 100 mg/kg os
Description: The experiment was carried out on […] New Zealand rabbits, average body weight 2.5 kg, divided into three groups of ten animals each.
The vasal permeability was measured by the dye method: 1 ml of Evans Blue in a concentration of 0.5% was injected into the marginal vein of the ear. After 10 min a soft corneal lens embedded in a 2% solution of histamine hydrochloride was applied for 30 min to the left eye.
The left eye was subjected to paracentesis and a sample of aqueous humour was taken.
Immediately after, the substances were given by gavage at the dose of 100 mg/kg. Two or four hours after administration a lens embedded with histamine as described before was applied for 30 min on the right eye. Paracentesis was carried out and aqueous humor was taken.
The quantity of Evans Blue in the aqueous humor was evaluated as described in 1(i).

[7] = 100 mg/kg os, 1 administration, 2 hours
[8] = 100 mg/kg os, 1 administration, 4 hours
[9] = 100 mg/kg os, 7 administrations, 24 hours after last
[10] = 200 mg/kg os, 1 administration, 2 hours
[11] = 200 mg/kg os, 1 administration, 4 hours

Question: What does the source list for `Oc1ccc(-c2[o+]c3cc(O)cc(O)c3cc2O)cc1` [Compound I, pelargonidin]?
Answer: Toxic symptoms or death (in words) [1]: did not cause toxic symptoms or death; LD50 [1]: > 6000 mg/kg; Evans Blue, m ± s.e. ([2]; 50 mg/kg/day os): 5.8 ± 0.8 µg/mL; Percentage variation of Evans Blue ([2]; 50 mg/kg/day os): -2%; Reduction in permeability, significance (in words) [2]: statistically significant compared with the controls; Evans Blue, m ± s.e. ([2]; 100 mg/kg/day os): 3.5 ± 0.6 µg/mL; Percentage variation of Evans Blue ([2]; 100 mg/kg/day os): -40%; Permeability of the vessels of the ciliary body caused by the irritating agent (in words) [2]: dose-dependent reduction in the permeability of the vessels of the ciliary body; Evans Blue in aqueous humour, m ± s.d. [3, 7]: 34.9 ± 8.5 µg/mL; Percentage variation of Evans Blue relative to time 0 [3, 7]: -15.4%; Evans Blue in aqueous humour, m ± s.d. [3, 8]: 46.9 ± 17.5 µg/mL; Percentage variation of Evans Blue relative to time 0 [3, 8]: -15.5%; Evans Blue in aqueous humour, m ± s.d. [3, 9]: 44.2 ± 11.7 µg/mL; Percentage variation of Evans Blue relative to time 0 [3, 9]: -22.4%; Evans Blue in aqueous humour, m ± s.d. [3, 10]: 42.2 ± 15.0 µg/mL; Percentage variation of Evans Blue relative to time 0 [3, 10]: -16.4%; Evans Blue in aqueous humour, m ± s.d. [3, 11]: 44.8 ± 20.2 µg/mL; Percentage variation of Evans Blue relative to time 0 [3, 11]: -15.6%; Amount of dye coming out of the vessels of the ciliary body (in words) [3]: reduced in a statistically significant manner; Toxic symptoms or death (in words) [4]: did not cause toxic symptoms or death; LD50 [4]: > 6000 mg/kg; Modifications in ocular structures (in words) [5]: did not induce modifications in the conjunctive, cornea, iris, crystalline lens, vitrous humour or retina; Permeability of the vessels of the ciliary body caused by histamine (in words) [6]: reduced permeability of the vessels of the ciliary body caused by histamine; Effects, significance (in words) [6]: statistically significant compared with the basal values; Evans Blue in aqueous humour, m ± sd ([6]; 2 hours): 86.2 ± 6.1 µg/mL; Percentage variation of Evans Blue relative to time 0 ([6]; 2 hours): -19.0%; Evans Blue in aqueous humour, m ± sd ([6]; 4 hours): 75.9 ± 10.3 µg/mL; Percentage variation of Evans Blue relative to time 0 ([6]; 4 hours): -29.9%

Question: For `Oc1cc(O)c2cc(O)c(-c3cc(O)c(O)c(O)c3)[o+]c2c1` [Compound II, delphinidin], which “Toxic symptoms or death (in words)” value [1] is on record?
Answer: did not cause toxic symptoms or death

Question: And the LD50 [1]?
Answer: > 6000 mg/kg

Question: And the “Evans Blue, m ± s.e.” value ([2]; 50 mg/kg/day os)?
Answer: 5.1 ± 0.7 µg/mL

Question: And the “Percentage variation of Evans Blue” value ([2]; 50 mg/kg/day os)?
Answer: -14%

Question: What about the “Reduction in permeability, significance (in words)” value [2] of the same compound?
Answer: statistically significant compared with the controls

Question: And the “Evans Blue, m ± s.e.” value ([2]; 100 mg/kg/day os)?
Answer: 3.2 ± 0.4 µg/mL

Question: What about the “Percentage variation of Evans Blue” value ([2]; 100 mg/kg/day os) of the same compound?
Answer: -45%

Question: And the “Permeability of the vessels of the ciliary body caused by the irritating agent (in words)” value [2]?
Answer: dose-dependent reduction in the permeability of the vessels of the ciliary body

Question: And the “Evans Blue in aqueous humour, m ± s.d.” value [3, 7]?
Answer: 41.5 ± 7.9 µg/mL

Question: And the “Percentage variation of Evans Blue relative to time 0” value [3, 7]?
Answer: -14.1%

Question: And the “Evans Blue in aqueous humour, m ± s.d.” value [3, 8]?
Answer: 45.6 ± 9.7 µg/mL

Question: And the “Percentage variation of Evans Blue relative to time 0” value [3, 8]?
Answer: -14.9%

Question: What about the “Evans Blue in aqueous humour, m ± s.d.” value [3, 9] of the same compound?
Answer: 42.5 ± 13.3 µg/mL

Question: What about the “Percentage variation of Evans Blue relative to time 0” value [3, 9] of the same compound?
Answer: -20.8%

Question: What about the “Evans Blue in aqueous humour, m ± s.d.” value [3, 10] of the same compound?
Answer: 45.1 ± 10.3 µg/mL

Question: What about the “Percentage variation of Evans Blue relative to time 0” value [3, 10] of the same compound?
Answer: -15.1%

Question: What about the “Evans Blue in aqueous humour, m ± s.d.” value [3, 11] of the same compound?
Answer: 45.9 ± 12.2 µg/mL

Question: What about the “Percentage variation of Evans Blue relative to time 0” value [3, 11] of the same compound?
Answer: -15.1%

Question: What about the “Amount of dye coming out of the vessels of the ciliary body (in words)” value [3] of the same compound?
Answer: reduced in a statistically significant manner

Question: What about the “Toxic symptoms or death (in words)” value [4] of the same compound?
Answer: did not cause toxic symptoms or death

Question: And the LD50 [4]?
Answer: > 6000 mg/kg

Question: What about the “Modifications in ocular structures (in words)” value [5] of the same compound?
Answer: did not induce modifications in the conjunctive, cornea, iris, crystalline lens, vitrous humour or retina

Question: And the “Permeability of the vessels of the ciliary body caused by histamine (in words)” value [6]?
Answer: reduced permeability of the vessels of the ciliary body caused by histamine

Question: What about the “Effects, significance (in words)” value [6] of the same compound?
Answer: statistically significant compared with the basal values

Question: What about the “Evans Blue in aqueous humour, m ± sd” value ([6]; 2 hours) of the same compound?
Answer: 82.0 ± 7.0 µg/mL

Question: And the “Percentage variation of Evans Blue relative to time 0” value ([6]; 2 hours)?
Answer: -25.3%

Question: And the “Evans Blue in aqueous humour, m ± sd” value ([6]; 4 hours)?
Answer: 68.8 ± 8.7 µg/mL

Question: What about the “Percentage variation of Evans Blue relative to time 0” value ([6]; 4 hours) of the same compound?
Answer: -31.7%
